Measured values reported in patent US20250333733A1, “NOVEL TARGETS AGAINST OVARIAN CANCER” (UNIVERSITY OF PUERTO RICO, priority 2022, published 2025).

Legend:
SKOV3ip1CIS cells = experiment: Western blot of apoptotic-related and cell-cycle related proteins; assay type: cell-based, human
Description: Cell pellets were lysed with complete lysis buffer and total protein concentration […]. Protein samples were separated by SDS-PAGE, blotted onto nitrocellulose membranes, blocked in either 5% non-fat dry milk (Bio-Rad) or 5% BSA (HyClone), and probed with the appropriate dilution of corresponding primary antibody. Membranes were rinsed and incubated with corresponding HRP-conjugated secondary antibody, followed by enhanced chemiluminescence and autoradiography.

Caspase-3 = Caspase-3 fluorometric activity in OVCAR3CIS cells; assay type: cell-based; settings: 72 hours after transfection, vs NC-siRNA
Description: Caspase-3 activity was quantified using the Caspase-3/CPP32 Fluorometric Assay Kit (BioVision CA, USA) as per the manufacturer's instructions. OVCAR3CIS (3.0×10^4 cells/mL) or SKOV3ip1CIS (3.5×10^4 cells/mL) were seeded into 10 cm Petri dishes and transfected with NC-siRNA or CASC10-siRNA (2). Twenty-four hours later, the media was replaced by regular media, and seventy-two hours after transfection, cells were collected, pellets lysed, and total protein concentration determined. Equal amounts of protein were mixed with 2×Reaction Buffer and 1 mM DEVD-AFC substrate in a 96-well plate and incubated at 37° C. for 2.5 hours. Fluorescence intensity at 400 nm excitation and 505 nm emission was measured.

Question: Which Bcl-2 decrease (SKOV3ip1CIS cells) does the source give for “CASC10-siRNA (2): siRNA targeting CASC10 RNA, SEQ ID NO 3 and 4: 5′ GACUCUUGGAUCCAAGUUU(dT)(dT) 3′ / 5′ AAACUUGGAUCCAAGAGUC(dT)(dT) 3′ (chain 1 GACUCUUGGAUCCAAGUUUNN; chain 2 AAACUUGGAUCCAAGAGUCNN; 3' dTdT overhangs, chemistry not fully specified)” here?
Answer: 66%

Question: What about the “cleaved Caspase-3 increase” value (SKOV3ip1CIS cells) of the same substance?
Answer: 6 fold

Question: What about the “cleaved Caspase-9 increase” value (SKOV3ip1CIS cells) of the same substance?
Answer: 2 fold

Question: And the “cleaved PARP-1 increase” value (SKOV3ip1CIS cells)?
Answer: 7 fold

Question: And the CDK4 protein (SKOV3ip1CIS cells; vs NC-siRNA)?
Answer: reduction

Question: And the “Cyclin E1 protein” value (SKOV3ip1CIS cells; vs NC-siRNA)?
Answer: reduction

Question: What about the p27 protein levels (SKOV3ip1CIS cells; vs NC-siRNA) of the same substance?
Answer: reduction

Question: What about the “increase in caspase-3 activity” value (Caspase-3) of the same substance?
Answer: 5 fold
